Measurements from ChEMBL document CHEMBL1134304, “Discovery of novel p-arylthio cinnamides as antagonists of leukocyte function-associated antigen-1/intercellular adhesion molecule-1 interaction. 4. Structure-activity relationship of substituents on the benzene ring of the cinnamide” (J Med Chem, 2001).
Each block holds one molecule with its values, some of them ahead of it.

What was measured:
Integrin alpha-L [1] = molecular target: T1, Integrin alpha-L (Homo sapiens, UniProt P20701); experiment: Inhibition of intercellular adhesion molecule-1 (ICAM-1) binding to recombinant LFA-1, range(120-140)
T1 sequence (P20701 whole entry): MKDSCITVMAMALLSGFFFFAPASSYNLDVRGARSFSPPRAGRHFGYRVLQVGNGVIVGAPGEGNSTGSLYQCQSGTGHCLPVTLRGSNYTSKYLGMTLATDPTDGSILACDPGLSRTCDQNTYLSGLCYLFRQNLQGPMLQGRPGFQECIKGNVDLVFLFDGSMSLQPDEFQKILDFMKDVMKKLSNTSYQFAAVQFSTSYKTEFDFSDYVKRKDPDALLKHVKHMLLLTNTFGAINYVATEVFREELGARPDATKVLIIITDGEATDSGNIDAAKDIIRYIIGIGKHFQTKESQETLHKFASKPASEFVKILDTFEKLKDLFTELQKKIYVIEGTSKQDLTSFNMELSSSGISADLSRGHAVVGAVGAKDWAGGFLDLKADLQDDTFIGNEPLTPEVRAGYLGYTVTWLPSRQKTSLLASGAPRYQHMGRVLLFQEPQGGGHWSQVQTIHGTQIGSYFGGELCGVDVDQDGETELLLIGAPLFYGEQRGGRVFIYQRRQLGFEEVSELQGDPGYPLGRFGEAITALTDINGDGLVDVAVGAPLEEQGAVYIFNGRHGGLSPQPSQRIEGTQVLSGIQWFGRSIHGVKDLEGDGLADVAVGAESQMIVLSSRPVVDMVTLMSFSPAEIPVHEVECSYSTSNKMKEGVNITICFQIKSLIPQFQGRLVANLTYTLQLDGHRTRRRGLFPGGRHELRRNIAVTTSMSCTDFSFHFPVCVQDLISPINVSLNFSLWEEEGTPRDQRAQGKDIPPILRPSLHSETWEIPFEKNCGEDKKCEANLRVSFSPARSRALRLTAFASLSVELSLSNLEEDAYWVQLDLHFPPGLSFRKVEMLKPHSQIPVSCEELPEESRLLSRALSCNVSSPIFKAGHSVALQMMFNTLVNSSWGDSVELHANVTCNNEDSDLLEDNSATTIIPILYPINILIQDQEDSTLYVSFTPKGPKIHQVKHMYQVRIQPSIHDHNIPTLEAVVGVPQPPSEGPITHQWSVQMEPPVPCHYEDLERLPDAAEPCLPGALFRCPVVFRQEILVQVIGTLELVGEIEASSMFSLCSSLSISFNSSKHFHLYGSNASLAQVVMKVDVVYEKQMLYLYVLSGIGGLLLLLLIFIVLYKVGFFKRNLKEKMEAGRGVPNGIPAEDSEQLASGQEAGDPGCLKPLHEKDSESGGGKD

[2] = molecular target: T2, Intercellular adhesion molecule (ICAM-1), Integrin alpha-L/beta-2 (Homo sapiens, UniProt P05107+P20701); experiment: Inhibition of LFA-1 mediated JY-8 cell adhesion to ICAM-1, range (2-30); format: functional, cell-based
T2 sequence (P05362 whole entry, one chain of several, further chain): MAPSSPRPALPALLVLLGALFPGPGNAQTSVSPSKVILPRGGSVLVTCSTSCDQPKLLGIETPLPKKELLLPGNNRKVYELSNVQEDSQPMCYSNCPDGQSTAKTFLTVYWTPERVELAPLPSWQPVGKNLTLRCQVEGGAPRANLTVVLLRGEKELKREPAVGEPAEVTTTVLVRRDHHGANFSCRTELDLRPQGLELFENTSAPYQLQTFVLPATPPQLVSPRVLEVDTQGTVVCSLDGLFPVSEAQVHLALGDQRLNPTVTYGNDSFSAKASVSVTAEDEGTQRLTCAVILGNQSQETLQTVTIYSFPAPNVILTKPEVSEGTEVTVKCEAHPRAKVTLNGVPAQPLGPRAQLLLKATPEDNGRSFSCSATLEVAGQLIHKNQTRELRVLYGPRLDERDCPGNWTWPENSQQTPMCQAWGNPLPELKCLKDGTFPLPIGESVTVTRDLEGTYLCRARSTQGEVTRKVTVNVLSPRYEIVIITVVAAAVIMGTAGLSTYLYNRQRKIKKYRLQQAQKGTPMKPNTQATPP
T2 sequence (P05107 whole entry, one chain of several): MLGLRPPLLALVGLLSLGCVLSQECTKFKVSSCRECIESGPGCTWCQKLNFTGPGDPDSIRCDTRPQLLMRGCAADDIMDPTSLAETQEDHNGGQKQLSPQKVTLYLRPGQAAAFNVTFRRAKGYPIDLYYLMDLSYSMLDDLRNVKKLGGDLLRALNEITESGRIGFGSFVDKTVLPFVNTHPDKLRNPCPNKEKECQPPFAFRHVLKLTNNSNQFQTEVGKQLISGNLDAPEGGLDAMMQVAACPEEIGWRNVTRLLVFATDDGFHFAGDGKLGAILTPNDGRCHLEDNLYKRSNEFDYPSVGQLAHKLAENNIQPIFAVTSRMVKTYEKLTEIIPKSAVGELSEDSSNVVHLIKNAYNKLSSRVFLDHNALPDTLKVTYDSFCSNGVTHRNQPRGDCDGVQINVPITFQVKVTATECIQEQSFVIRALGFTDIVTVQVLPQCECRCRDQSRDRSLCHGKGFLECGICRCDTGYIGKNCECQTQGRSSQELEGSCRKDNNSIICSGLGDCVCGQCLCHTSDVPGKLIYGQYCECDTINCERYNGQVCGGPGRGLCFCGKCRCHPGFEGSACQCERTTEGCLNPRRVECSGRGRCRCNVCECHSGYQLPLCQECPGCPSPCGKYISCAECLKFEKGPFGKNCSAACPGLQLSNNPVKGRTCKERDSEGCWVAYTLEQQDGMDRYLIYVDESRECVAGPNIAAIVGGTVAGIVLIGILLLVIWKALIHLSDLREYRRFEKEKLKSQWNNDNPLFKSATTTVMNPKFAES

Integrin alpha-L [3] = molecular target: T1, Integrin alpha-L; experiment: Inhibition of intercellular adhesion molecule-1 (ICAM-1) binding to recombinant LFA-1, range (6-12)
Integrin alpha-L [4] = molecular target: T1, Integrin alpha-L; experiment: Inhibition of intercellular adhesion molecule-1 (ICAM-1) binding to recombinant LFA-1
Integrin alpha-L [5] = molecular target: T1, Integrin alpha-L; experiment: Inhibition of intercellular adhesion molecule-1 (ICAM-1) binding to recombinant LFA-1, range (2500-11500)
Integrin alpha-L [6] = molecular target: T1, Integrin alpha-L
[7] = molecular target: T2, Intercellular adhesion molecule (ICAM-1), Integrin alpha-L/beta-2
Integrin alpha-L [8] = molecular target: T1, Integrin alpha-L; experiment: Inhibition of intercellular adhesion molecule-1 (ICAM-1) binding to recombinant LFA-1, range (80-110)
Integrin alpha-L [9] = molecular target: T1, Integrin alpha-L; experiment: Inhibition of intercellular adhesion molecule-1 (ICAM-1) binding to recombinant LFA-1, range(760-2620)
Integrin alpha-L [10] = molecular target: T1, Integrin alpha-L; remark: listed apart in the source
Integrin alpha-L [11] = molecular target: T1, Integrin alpha-L; experiment: Inhibition of intercellular adhesion molecule-1 (ICAM-1) binding to recombinant LFA-1, range(100-110)
Integrin alpha-L [12] = molecular target: T1, Integrin alpha-L; remark: listed apart in the source
[13] = molecular target: T2, Intercellular adhesion molecule (ICAM-1), Integrin alpha-L/beta-2; remark: listed apart in the source
Integrin alpha-L [14] = molecular target: T1, Integrin alpha-L; remark: listed apart in the source
Integrin alpha-L [15] = molecular target: T1, Integrin alpha-L; experiment: Inhibition of intercellular adhesion molecule-1 (ICAM-1) binding to recombinant LFA-1, range (5-8)
[16] = molecular target: T2, Intercellular adhesion molecule (ICAM-1), Integrin alpha-L/beta-2; experiment: Inhibition of LFA-1 mediated JY-8 cell adhesion to ICAM-1, range (2-9); format: functional, cell-based
[17] = molecular target: T2, Intercellular adhesion molecule (ICAM-1), Integrin alpha-L/beta-2; experiment: Inhibition of LFA-1 mediated JY-8 cell adhesion to ICAM-1, range (30-150); format: functional, cell-based
Integrin alpha-L [18] = molecular target: T1, Integrin alpha-L; experiment: Inhibition of intercellular adhesion molecule-1 (ICAM-1) binding to recombinant LFA-1, range(30-60)
Integrin alpha-L [19] = molecular target: T1, Integrin alpha-L; experiment: Inhibition of intercellular adhesion molecule-1 (ICAM-1) binding to recombinant LFA-1, range (3600-5100)
Integrin alpha-L [20] = molecular target: T1, Integrin alpha-L; experiment: Inhibition of intercellular adhesion molecule-1 (ICAM-1) binding to recombinant LFA-1, range (260-270)
Integrin alpha-L [21] = molecular target: T1, Integrin alpha-L; remark: listed apart in the source

Compound: COc1ccccc1Sc1ccc(/C=C/C(=O)N2CCC(C(=O)O)CC2)c(Cl)c1Cl
IC50 [2]: 8 nM
IC50 (Integrin alpha-L [3]): 8 nM

Compound: O=C(/C=C/c1ccc(Sc2cccc(Cl)c2Cl)cc1)N1CCOCC1
IC50 (Integrin alpha-L [4]): 9100 nM

Compound: COc1ccccc1Sc1ccc(/C=C/C(=O)N2CCC(C(=O)O)CC2)c(C(F)(F)F)c1C(F)(F)F
IC50 (Integrin alpha-L [6]): 5 nM
IC50 [7]: 0.1 nM

Compound: COc1ccccc1Sc1ccc(/C=C/C(=O)N2CCOCC2)c(C)c1C
IC50 (Integrin alpha-L [8]): 90 nM

Compound: COc1ccccc1Sc1ccc(/C=C/C(=O)N2CCC(C(=O)O)CC2)c(Cl)c1
IC50 (Integrin alpha-L [9]): 1400 nM

Compound: CC(C)c1ccccc1SC1=CC=C(/C=C/C(=O)N2CCC(C(=O)O)CC2)C(F)C1F (stereo not drawn)
IC50 (Integrin alpha-L [10]): 115 nM

Compound: O=C(O)C1CCN(C(=O)/C=C/c2ccc(Sc3ccc4c(c3)OCCO4)c(C(F)(F)F)c2C(F)(F)F)CC1
IC50 (Integrin alpha-L [12]): 3 nM
IC50 [13]: 0.5 nM

Compound: COc1ccccc1Sc1cc(Cl)c(/C=C/C(=O)N2CCC(C(=O)O)CC2)cc1Cl
IC50 (Integrin alpha-L [4]): > 20000 nM

Compound: O=C(O)C1CCN(C(=O)/C=C/c2ccc(Sc3ccc4c(c3)OCCO4)c3ccccc23)CC1
IC50 (Integrin alpha-L [14]): 295 nM

Compound: COc1ccccc1Sc1ccc(/C=C/C(=O)N2CCC(C(=O)O)CC2)c(C(F)(F)F)c1Cl
IC50 (Integrin alpha-L [15]): 6 nM
IC50 [16]: 4 nM

Compound: COc1ccccc1Sc1ccc(/C=C/C(=O)N2CCC(C(=O)O)CC2)c(C(F)(F)F)c1
IC50 (Integrin alpha-L [20]): 265 nM

Compound: O=C(/C=C/c1ccc(Sc2ccc3c(c2)OCCO3)c(C(F)(F)F)c1)N1CCOCC1
IC50 (Integrin alpha-L [21]): 30 nM

Second part, the molecule after the results:

IC50 (Integrin alpha-L [1]): 139 nM
Compound: CC(=O)N1CCN(C(=O)/C=C/c2ccc(Sc3ccc4c(c3)OCCO4)c([N+](=O)[O-])c2)CC1

IC50 (Integrin alpha-L [5]): 3900 nM
Compound: COc1ccccc1Sc1ccc(/C=C/C(=O)N2CCN(C(C)=O)CC2)c(F)c1

IC50 (Integrin alpha-L [4]): > 20000 nM
Compound: O=C(O)C1CCN(C(=O)/C=C/c2cc(Cl)c(Sc3ccc4c(c3)OCCO4)c(C(F)(F)F)c2)CC1

IC50 (Integrin alpha-L [11]): 105 nM
Compound: CC(=O)N1CCN(C(=O)/C=C/c2ccc(Sc3cccc(Cl)c3Cl)c([N+](=O)[O-])c2)CC1

IC50 [17]: 80 nM
IC50 (Integrin alpha-L [18]): 40 nM
Compound: CC(=O)N1CCN(C(=O)/C=C/c2ccc(Sc3ccc4c(c3)OCCO4)c(Cl)c2)CC1

IC50 (Integrin alpha-L [19]): 4300 nM
Compound: CC(=O)N1CCN(C(=O)/C=C/c2ccc(Sc3ccc(Cl)cc3Cl)cc2)CC1
